Assay type in all cases: biochemical
The target in one assay is T1, Lyn kinase (human) (Homo sapiens, UniProt P07948).
T1 construct: purchased Upstate Biotechnology, Lake Placid, N.Y
The experiment in a line: Lyn Kinase Assay. As to conditions: test concentration of 2 μM. The procedure: A mixture of a 10× kinase buffer (500 mM MOPS at pH 7.5, 1 mM EGTA, 1 mM Sodium Vanadate, 1% β-mercaptoethanol and 100 mM Magnesium Acetate), ATP (5 μM final from a 10 mM stock), polyGluTyr (0.1 mg/mL final from a 1 mg/mL stock), γ-^33P ATP (10 μCl/μL stock) and water (for a total of 20 μL/well) was added to each well of a Streptavidin Flashplate.
Test compound in 100% DMSO (0.5 μL) was added to the appropriate wells. Diluted Lyn kinase (human)(Accession Number EMBL M16038) (Upstate Biotechnology, Lake Placid, N.Y.) (diluted in a buffer consisting of 50 mM Tris at pH 7.5, 0.1 mM EGTA, Sodium Vanadate (0.1 mM), β-mercaptoethanol (0.1%) and 1 mg/mL bovine serum albumin) (2.5 μL) was added to the wells to initiate the reactions.
The reaction plates were incubated at 30° C. for 40 min. The reaction was terminated by the addition of a 3% phosphoric acid solution (5 μL). The reaction product (10 μL) was spotted onto a P30 filtermat and washed for 5 minutes in phosphoric acid (75 mM). The wash sequence was repeated two more times, followed with one final wash in methanol. The plates were then dried, sealed and read on the TopCount scintillation counter after adding 30 μL scintillation fluid.
The Lyn inhibition values were derived according to the procedure described in Example 164 and are shown as percent in Table 3 at a test concentration of 2 μM. For those compounds with an IC50, the IC50 value in μM is shown in parentheses. For compounds with multiple test values, each value represents a separate assay result.

The target in another assay is T2, HER-2 (Homo sapiens, UniProt P04626).
T2 construct: His6 with thrombin site (N); purchased Proqinase (Freiburg, Germany)
T2 sequence (P04626 679-1255): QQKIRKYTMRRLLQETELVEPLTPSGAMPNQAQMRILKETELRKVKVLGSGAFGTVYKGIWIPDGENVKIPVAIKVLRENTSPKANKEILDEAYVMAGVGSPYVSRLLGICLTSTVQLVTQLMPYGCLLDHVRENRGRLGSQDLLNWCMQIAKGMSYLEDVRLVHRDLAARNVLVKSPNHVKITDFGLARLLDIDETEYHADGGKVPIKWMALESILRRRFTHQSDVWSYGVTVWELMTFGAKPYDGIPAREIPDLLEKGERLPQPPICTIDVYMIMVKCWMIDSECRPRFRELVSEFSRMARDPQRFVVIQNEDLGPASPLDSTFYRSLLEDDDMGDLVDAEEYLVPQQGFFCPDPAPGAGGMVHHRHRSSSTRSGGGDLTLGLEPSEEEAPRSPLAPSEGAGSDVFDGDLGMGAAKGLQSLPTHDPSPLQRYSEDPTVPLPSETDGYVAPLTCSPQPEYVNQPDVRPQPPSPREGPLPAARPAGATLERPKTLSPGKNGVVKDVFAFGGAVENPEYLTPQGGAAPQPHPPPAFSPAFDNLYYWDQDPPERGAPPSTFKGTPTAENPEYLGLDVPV
Put plainly: HER-2 Kinase Assay. As to conditions: test concentration of 1 μM. Summed up:
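GST/HIS6-tagged HER-2 aa 679–1255 kinase with biotinylated polyGluTyr (1.5 ng/μL), 1 μM ATP plus γ-33P-ATP, Mg2+/Mn2+, DTT, Hepes pH 7.5; 1 h at 30 °C. Substrate phosphorylation captured on streptavidin scintillation plates after EDTA/PBS washes; values are % inhibition at 1 μM or IC50.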

A further assay deals with T3, EGFR (Homo sapiens, UniProt P00533).
T3 construct: The intracellular portion of EGFR started at nucleotide 2189 (corresponding to amino acid 667) and ended at the termination codon; made in house; host or cells: Sf9 insect cells (baculovirus)
T3 sequence (P00533 669-1210 limits assumed): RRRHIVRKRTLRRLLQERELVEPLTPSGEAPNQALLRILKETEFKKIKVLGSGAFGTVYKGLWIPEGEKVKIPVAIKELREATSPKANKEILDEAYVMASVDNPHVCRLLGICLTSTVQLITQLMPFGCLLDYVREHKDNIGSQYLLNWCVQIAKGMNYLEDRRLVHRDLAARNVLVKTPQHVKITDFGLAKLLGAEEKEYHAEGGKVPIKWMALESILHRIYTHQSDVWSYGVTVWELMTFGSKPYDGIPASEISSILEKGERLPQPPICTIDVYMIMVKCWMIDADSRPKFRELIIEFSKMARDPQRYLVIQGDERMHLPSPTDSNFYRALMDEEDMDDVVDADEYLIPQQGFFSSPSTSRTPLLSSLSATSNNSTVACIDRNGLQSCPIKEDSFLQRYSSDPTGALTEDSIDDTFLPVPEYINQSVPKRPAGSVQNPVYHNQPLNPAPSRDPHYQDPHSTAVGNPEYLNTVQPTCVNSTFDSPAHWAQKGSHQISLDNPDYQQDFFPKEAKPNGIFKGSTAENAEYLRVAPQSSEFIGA
The experiment in a line: EGFR Kinase Assay. As to conditions: for IC50: GST-EGFR, ATP 5 μM; for inhibition at 2 µM: test concentration of 2 μM, compounds without an IC50, read-out: EGFR inhibition in percent. Summed up:
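GST-fused human EGFR intracellular domain (from aa 667), Sf9-expressed, phosphorylated biotinylated polyGluTyr with 5 μM ATP plus γ-33P ATP in Tris pH 8.0, MgCl2, vanadate, 1 mM DTT, 1 h at 30 °C. Streptavidin Flashplate scintillation read; triplicate 16-point half-log series from 200 uM; IC50 from % inhibition vs log concentration, else % inhibition at 2 μM.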

For another assay, the target named is T4, c-Src kinase (human) (Homo sapiens, UniProt P12931).
T4 construct: purchased Upstate Biotechnology, Lake Placid, N.Y
T4 sequence (P12931 whole entry): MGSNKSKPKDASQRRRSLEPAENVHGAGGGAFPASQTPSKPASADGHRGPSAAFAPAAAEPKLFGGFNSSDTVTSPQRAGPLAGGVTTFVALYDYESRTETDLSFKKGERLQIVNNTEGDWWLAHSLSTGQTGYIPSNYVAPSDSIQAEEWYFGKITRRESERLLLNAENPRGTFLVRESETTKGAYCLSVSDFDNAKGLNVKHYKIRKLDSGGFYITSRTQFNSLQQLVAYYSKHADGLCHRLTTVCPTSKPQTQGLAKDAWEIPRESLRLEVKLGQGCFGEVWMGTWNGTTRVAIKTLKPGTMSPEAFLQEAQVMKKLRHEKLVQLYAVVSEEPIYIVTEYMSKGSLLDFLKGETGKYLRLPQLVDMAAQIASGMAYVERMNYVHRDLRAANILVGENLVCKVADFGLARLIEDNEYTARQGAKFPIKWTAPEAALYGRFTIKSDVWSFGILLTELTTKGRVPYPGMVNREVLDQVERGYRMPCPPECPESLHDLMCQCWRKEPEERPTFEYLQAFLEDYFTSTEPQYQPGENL
Put plainly: c-Src Kinase Assay. As to conditions: test concentration of 2 μM; multiple values are separate assay results. The procedure: A mixture of a 10× kinase buffer (80 mM MOPS at pH 7.0, 2 mM EDTA and 100 mM Magnesium Chloride), ATP (5 μM final from a 10 mM stock), a Cdc2 peptide KVEKIGEGTYGVVYK (100 μM final from a 2.5 mM stock), γ-^33P ATP (10 μCl/μL stock) and water (for a total of 20 μL/well) was added to each well of a Streptavidin Flashplate.
Test compound in 100% DMSO (0.5 μL) was added to the appropriate wells. Diluted c-Src kinase (human) (Accession Number SWISS-PROT P12931) (Upstate Biotechnology, Lake Placid, N.Y.) (diluted in a buffer consisting of 20 mM MOPS at pH 7.0, 1 mM EDTA, β-mercaptoethanol (0.1%), Brij-35 (0.01%), glycerol (5%), and 1 mg/mL bovine serum albumin) (2.5 μL) was added to the wells to initiate the reactions. The reaction plates were incubated at 30° C. for 40 min. The reaction was terminated by the addition of a 3% phosphoric acid solution (5 μL). The reaction product (10 μL) was spotted onto a P30 filtermat and washed for 5 minutes in phosphoric acid (75 mM). The wash sequence was repeated two more times, followed with one final wash in methanol. The plates were then dried, sealed and read on the TopCount scintillation counter after adding 30 μL scintillation fluid.
The c-Src inhibition values were derived using the percent inhibition formula provided in Example 164 and are shown as percent in Table 2 at a test concentration of 2 μM. For those compounds with an IC50, the IC50 value in μM is shown in parentheses. For compounds with multiple test values, each value represents a separate assay result.

T1 sequence (P07948 whole entry): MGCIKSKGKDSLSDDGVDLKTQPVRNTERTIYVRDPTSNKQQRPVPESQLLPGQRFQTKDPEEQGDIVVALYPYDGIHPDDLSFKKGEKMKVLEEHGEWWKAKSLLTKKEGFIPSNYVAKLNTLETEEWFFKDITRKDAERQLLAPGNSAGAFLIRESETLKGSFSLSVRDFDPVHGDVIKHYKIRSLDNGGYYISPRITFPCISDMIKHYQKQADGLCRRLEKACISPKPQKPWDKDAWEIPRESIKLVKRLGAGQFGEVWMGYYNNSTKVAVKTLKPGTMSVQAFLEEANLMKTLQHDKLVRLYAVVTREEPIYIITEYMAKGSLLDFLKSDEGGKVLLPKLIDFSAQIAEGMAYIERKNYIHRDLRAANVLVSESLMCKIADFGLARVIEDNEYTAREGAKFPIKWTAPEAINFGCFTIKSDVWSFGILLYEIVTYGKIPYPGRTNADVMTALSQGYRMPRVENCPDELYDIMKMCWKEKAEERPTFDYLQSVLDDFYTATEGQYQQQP

With `COc1cc(N2C(=O)Nc3c(C(=O)Nc4ccc(OCCN5CCOCC5)c(OC)c4)sc4ncnc2c34)c(Cl)cc1Cl` [Cpd 34, 5-(2,4-dichloro-5-methoxy-phenyl)-4-oxo-4,5-dihydro-3H-1-thia-3,5,6,8-tetraaza-acenaphthylene-2-carboxylic acid [3-methoxy-4-(2-morpholin-4-yl-ethoxy)-phenyl]-amide], the inhibition at 2 µM against Lyn kinase (human) is 10%; on c-Src kinase (human) it was 23%. For the same compound, the inhibition at 1 µM against HER-2 is -14%. Also, the 50% inhibitory concentration (IC50) against EGFR was 5.37 µM.
The corresponding values for `COc1cc(N2C(=O)Nc3c(C(=O)Nc4ccc(OC)c(OC)c4)sc4ncnc2c34)c(Cl)cc1Cl` [Cpd 35, 5-(2,4-dichloro-5-methoxy-phenyl)-4-oxo-4,5-dihydro-3H-1-thia-3,5,6,8-tetraaza-acenaphthylene-2-carboxylic acid (3,4-dimethoxy-phenyl)-amide] are -11%, 7%, -12% and 5.71 µM.
The corresponding values for `COc1ccc(NC(=O)c2sc3ncnc4c3c2NC(=O)N4c2ccc(Br)cc2F)cc1OC` [Cpd 37, 5-(4-bromo-2-fluoro-phenyl)-4-oxo-4,5-dihydro-3H-1-thia-3,5,6,8-tetraaza-acenaphthylene-2-carboxylic acild (3,4-dimethoxy-phenyl)-amide] are -13%, 11%, 1% and 0.49 µM.
Taken in the same sequence, the figures for `COc1cc(NC(=O)c2sc3ncnc4c3c2NC(=O)N4c2ccc(Br)cc2F)ccc1OCCN1CCOCC1` [Cpd 39, 5-(4-bromo-2-fluoro-phenyl)-4-oxo-4,5-dihydro-3H-1-thia-3,5,6,8-tetraaza-acenaphthylene-2-carboxylic acid [3-methoxy-4-(2-morpholin-4-yl-ethoxy)-phenyl]-amide] were 11%, 16%, 24% and 0.41 µM.
As for `O=C(O)c1sc2ncnc3c2c1NC(=O)N3c1ccc(Br)cc1F` [Cpd 40, 5-(4-bromo-2-fluoro-phenyl)-4-oxo-4,5-dihydro-3H-1-thia-3,5,6,8-tetraaza-acenaphthylene-2-carboxylic acid], the results for the inhibition at 2 µM against Lyn kinase (human) and at c-Src kinase (human) were -5% and 3%, respectively. Besides, the inhibition at 1 µM at HER-2 is -19%. It took 7.43 µM to reach half-maximal inhibition on EGFR (IC50).
Consider `COc1cc(N2C(=O)Nc3c(C(=O)O)sc4ncnc2c34)c(Cl)cc1Cl` [Cpd 41, 5-(2,4-dichloro-5-methoxy-phenyl)-4-oxo-4,5-dihydro-3H-1-thia-3,5,6,8-tetraaza-acenaphthylene-2-carboxylic acid], for which the inhibition at 2 µM was 29% on Lyn kinase (human), 11% at EGFR and 18% against c-Src kinase (human). Also, the inhibition at 1 µM on HER-2 is -17%.
The corresponding values for `COc1cc(N2C(=O)Nc3c(C(=O)O)sc4ncnc2c34)cc(OC)c1OC` [Cpd 42, 4-oxo-5-(3,4,5-trimethoxy-phenyl)-4,5-dihydro-3H-1-thia-3,5,6,8-tetraaza-acenaphthylene-2-carboxylic acid] are 24%, -3%, 8% and -36%.
The corresponding values for `COc1cc(N2C(=O)Nc3c(C(=O)Nc4ccc(CN5CCOCC5)cc4)sc4ncnc2c34)c(Cl)cc1Cl` [Cpd 44, 5-(2,4-dichloro-5-methoxy-phenyl)-4-oxo-4,5-dihydro-3H-1-thia-3,5,6,8-tetraaza-acenaphthylene-2-carboxylic acid (4-morpholin-1-ylmethyl-phenyl)-amide] are 49%, 26%, 45% and 21%.
As to `COc1cc(N2C(=O)Nc3c(C(=O)Nc4ccc(OCC5CCCCO5)c(OC)c4)sc4ncnc2c34)c(Cl)cc1Cl` (centres unmarked) [Cpd 45, 5-(2,4-dichloro-5-methoxy-phenyl)-4-oxo-4,5-dihydro-3H-1-thia-3,5,6,8-tetraaza-acenaphthylene-2-carboxylic acid [3-methoxy-4-(tetrahydro-pyran-2-ylmethoxy)-phenyl)-amide], the inhibition at 2 µM against Lyn kinase (human) was 29%; at EGFR it was 14%; at c-Src kinase (human) it was 17%. For the same compound, at HER-2, the inhibition at 1 µM is -25%.
As to `COc1cc(N2C(=O)Nc3c(C(=O)N4CCCC4)sc4ncnc2c34)c(Cl)cc1Cl` [Cpd 46, 5-(2,4-dichloro-5-methoxy-phenyl)-2-(pyrrolidine-1-carbonyl)3H,5H-1-thia-3,5,6,8-tetraaza-acenaphthylen-4-one], the figures for the inhibition at 2 µM against Lyn kinase (human), on EGFR and against c-Src kinase (human) were 40%, 1% and 30%, respectively. Further, the inhibition at 1 µM against HER-2 came out at 0%.
Taken in the same sequence, the figures for `COc1ccc(Cl)c(N2C(=O)Nc3c(C(=O)O)sc4ncnc2c34)c1` [Cpd 47, 5-(2-chloro-5-methoxy-phenyl)-4-oxo-4,5-dihydro-3H-1-thia-3,5,6,8-tetraaza-acenaphthylene-2-carboxylic acid] were 28%, 5%, 9% and -28%.
The corresponding values for `O=C(Nc1ccc(CN2CCOCC2)cc1)c1sc2ncnc3c2c1NC(=O)N3c1ccc(Br)cc1F` [Cpd 53, 5-(4-bromo-2-fluoro-phenyl)-4-oxo-4,5-dihydro-3H-1-thia-3,5,6,8-tetraaza-acenaphthylene-2-carboxylic acid (4-morpholin-4-ylmethyl-phenyl)-amide] are 17%, 34%, 11% and -13%.
Consider `O=C(Nc1ccc(CN2CCCC2)cc1)c1sc2ncnc3c2c1NC(=O)N3c1cc(OCc2cccc(F)c2)c(Cl)cc1Cl` [Cpd 55, 5-[2,4-dichloro-5-(3-fluoro-benzyloxy)-phenyl]-4-oxo-4,5-dihydro-3H-1-thia-3,5,6,8-tetraaza-acenaphthylene-2-carboxylic acid (4-pyrrolidin-1-ylmethyl-phenyl)-amide], for which the inhibition at 2 µM is 3% on Lyn kinase (human), 14% on EGFR and -16% on c-Src kinase (human). In addition, the inhibition at 1 µM at HER-2 was -22%.
The corresponding values for `COc1cc(NC(=O)c2sc3ncnc4c3c2NC(=O)N4c2cc(OCc3cccc(F)c3)c(Cl)cc2Cl)ccc1OCCN1CCCCC1` [Cpd 56, 5-[2,4-dichloro-5-(3-fluoro-benzyloxy)-phenyl]-4-oxo-4,5-dihydro-3H-1-thia-3,5,6,8-tetraaza-acenaphthylene-2-carboxylic acid [3-methoxy-4-(2-piperidin-1-yl-ethoxy)-phenyl]-amide] are 7%, 20%, -22% and -6%.

The term inhibition denotes the relative decrease from the control value, in per cent. Usually IC50 stands for the midpoint of a concentration-inhibition curve. The low end stands for greater potency in that assay, the high end for weaker potency in that assay.

The record behind these values is patent US7579356B2, “Thia-tetraazaacenaphthylene kinase inhibitors” (Janssen Pharmaceutica NV, priority 2005, dated 2009).
